The text below walks through data of ChEMBL document CHEMBL5329196, “Development of truncated Battacin antimicrobials featuring novel N-terminal fatty acids with an excellent safety profile” (Bioorg Med Chem Lett, 2023).

Converted amounts (≈) assume the structure as drawn. Where a SMILES comes first, the peptide text is derived from it.

Series [1] can be described thus: Pro-aggregation of the compound in human MDA-MB-231 cells at 1 mM by Bright field microscopic analysis. The class given is physicochemical, cell-based. Particulars: mda-mb-231, 1000 µM.
The next series relates to MDA-MB-231. The series can be described thus: (§1) Cytotoxicity against human MDA-MB-231 cells assessed as reduction in cell viability measured after 24 hrs by quantitative live/dead fluorescence microscopy. The class given is toxicity, cell-based. Particulars: mda-mb-231.
A short description of series [2]: Pro-aggregation of the compound in human MDA-MB-231 cells at 1 mM by fluorescence microscopic analysis. The class given is physicochemical, cell-based. To be noted: mda-mb-231, 1000 µM.
Series [3] can be described thus: Pro-aggregation of the compound in human NCI-H460 cells at 1 mM by fluorescence microscopic analysis. To be noted: nci-h460, 1000 µM. The class given is physicochemical, cell-based.
For the next series, the system named is NCI-H460. As to the kind of experiment: (§2) Cytotoxicity against human NCI-H460 cells assessed as reduction in cell viability measured after 24 hrs by quantitative live/dead fluorescence microscopy. The class given is toxicity, cell-based. To be noted: nci-h460.
Series [4] can be described thus: Pro-aggregation of the compound in human NCI-H460 cells at 1 mM by Bright field microscopic analysis. The class given is physicochemical, cell-based. To be noted: nci-h460, 1000 µM.
The test system of a further series is Erythrocyte. The series can be described thus: (§3) Induction of hemolysis in mouse RBC assessed as induction of hemoglobin release incubated for 1 hr by absorbance based analysis. The class given is toxicity, cell-based. Particulars: erythrocyte.
Another series relates to Staphylococcus aureus. The series can be described thus: Antibacterial activity against Staphylococcus aureus assessed as inhibition of bacterial growth incubated for 24 hrs by visual inspection analysis. The class given is functional.
A short description of series [5]: Therapeutic index, ratio of EC50 for induction of hemolytic activity against mouse RBC to MIC for antibacterial activity against Staphylococcus aureus. The class given is toxicity. To be noted: mouse red blood cells (erythrocytes), read-out: TI.
The nature of series [6]: Selectivity ratio of EC50 for cytotoxicity against human MDA-MB-231 cells to EC50 for cytotoxicity against human NCI-H460 cells. The class given is functional.
Series [7] in a line: Induction of hemolysis in mouse RBC assessed as induction of hemoglobin release at ~400 uM incubated for 1 hr by absorbance based analysis. The class given is toxicity, cell-based, Erythrocyte. To be noted: mouse red blood cells (erythrocytes), read-out: Activity.
The nature of series [8]: as §1. The class given is toxicity, cell-based. To be noted: human, MDA-MB-231 cells.
A short description of series [9]: as §2. The class given is toxicity, cell-based. Particulars: human, NCI-H460 cells.
Series [10] can be described thus: as §3. The class given is toxicity, cell-based, Erythrocyte. Particulars: mouse, mouse red blood cells (erythrocytes).
Series [11] in a line: Induction of hemolysis in mouse RBC assessed as induction of hemoglobin release at ~100 uM incubated for 1 hr by absorbance based analysis. The class given is toxicity, cell-based, Erythrocyte. Particulars: mouse red blood cells (erythrocytes), read-out: Activity.

Consider POLYMYXIN B, for which the Activity result in series [1], in series [2], in series [3] and in [4] was “Not Active” each time. Moreover, the values for the EC50 with MDA-MB-231, in the series with NCI-H460 and with Erythrocyte were over 1000 µM, 181 µM and at least 1000 µM, respectively.

On to `CCc1ccc(/C=C/CCC(=O)N[C@H](CCN)C(=O)N[C@@H](CCN)C(=O)N[C@@H](CC(C)C)C(=O)N[C@H](Cc2ccccc2)C(=O)N[C@@H](CCN)C(N)=O)cc1`, for which the MIC – broadly, the smallest concentration in the dilution series that meets the test's criterion for growth inhibition – with Staphylococcus aureus was 1 µM (≈ 0.764 µg/mL).

`CCC(C)CCC(=O)N[C@H](CCN)C(=O)N[C@@H](CCN)C(=O)N[C@@H](CC(C)C)C(=O)N[C@H](Cc1ccccc1)C(=O)N[C@@H](CCN)C(N)=O` (stereo partly drawn) (HELM PEPTIDE1{[CCC(C)CCC(=O)[*:2]].[NCC[C@@H](N[*:1])C(=O)[*:2]].[Dab].L.[dF].[Dab].[am]}$$$$V2.0): the MIC in the series on Staphylococcus aureus worked out at 4.5 µM (≈ 3.1 µg/mL).

Take `C=CCCC(=O)N[C@H](CCN)C(=O)N[C@@H](CCN)C(=O)N[C@@H](CC(C)C)C(=O)N[C@H](Cc1ccccc1)C(=O)N[C@@H](CCN)C(N)=O`: in the series on Staphylococcus aureus, the minimal inhibitory concentration (MIC) came out at 75.8 µM (≈ 50 µg/mL).

Regarding `COc1ccc(/C=C/CCC(=O)N[C@H](CCN)C(=O)N[C@@H](CCN)C(=O)N[C@@H](CC(C)C)C(=O)N[C@H](Cc2ccccc2)C(=O)N[C@@H](CCN)C(N)=O)cc1`, in the series with Staphylococcus aureus, the MIC was found to be 2 µM (≈ 1.53 µg/mL).

On to `C=CC(C)C(C)C(=O)N[C@H](CCN)C(=O)N[C@@H](CCN)C(=O)N[C@@H](CC(C)C)C(=O)N[C@H](Cc1ccccc1)C(=O)N[C@@H](CCN)C(N)=O` (stereo partly drawn), for which the MIC with Staphylococcus aureus came to 18.2 µM (≈ 12.5 µg/mL).

With `CC(C)C[C@H](NC(=O)[C@H](CCN)NC(=O)[C@@H](CCN)NC(=O)C(C)C(C)/C=C/c1ccccc1)C(=O)N[C@H](Cc1ccccc1)C(=O)N[C@@H](CCN)C(N)=O` (stereo partly drawn), the selectivity ratio in series [5] was over 267. Besides, the MIC in the series with Staphylococcus aureus amounted to 1 µM (≈ 0.764 µg/mL). Besides, the “Ratio EC50” value in series [6] worked out at 2. Further, the hemolysis at 1 h, 400 µM in [7] is 3.4%. Besides, the result in [1], in series [2], in [3] and in series [4] was Active. For the same compound, the EC50 – broadly, the concentration that produces a half-maximal response – at 24 h in series [8] is 898 µM; in series [9], 324 µM. In series [10], the EC50 at 1 h was at least 400 µM.

Consider `CCCCc1ccc(/C=C/CCC(=O)N[C@H](CCN)C(=O)N[C@@H](CCN)C(=O)N[C@@H](CC(C)C)C(=O)N[C@H](Cc2ccccc2)C(=O)N[C@@H](CCN)C(N)=O)cc1`, for which, in series [5], the selectivity ratio came to 60. Besides, the MIC in the series with Staphylococcus aureus is 1 µM (≈ 0.792 µg/mL). In series [6], the “Ratio EC50” value is 2. Also, the hemolysis at 1 h, 400 µM in series [7] came to 77%. The outcome in [1], in [2], in series [3] and in [4] was Active. In addition, the EC50 at 24 h in [8] is 67 µM; in series [9], 31 µM. In addition, in series [11], the hemolysis at 1 h, 100 µM is 56%. In series [10], the EC50 at 1 h is about 90 µM.

As for `CN[C@@H]1[C@H](O[C@H]2[C@H](O[C@H]3[C@H](O)[C@@H](O)[C@H](N=C(N)N)[C@@H](O)[C@@H]3N=C(N)N)O[C@@H](C)[C@]2(O)C=O)O[C@@H](CO)[C@H](O)[C@H]1O` [STREPTOMYCIN], the MIC with Staphylococcus aureus was found to be 1.3 µM (≈ 0.756 µg/mL).

Consider `CC(C)C[C@H](NC(=O)[C@H](CCN)NC(=O)[C@@H](CCN)NC(=O)CC/C=C/c1ccccc1)C(=O)N[C@H](Cc1ccccc1)C(=O)N[C@@H](CCN)C(N)=O`, for which the MIC in the series with Staphylococcus aureus came to 2.1 µM (≈ 1.55 µg/mL).

As to `CCCOc1ccc(/C=C/CCC(=O)N[C@H](CCN)C(=O)N[C@@H](CCN)C(=O)N[C@@H](CC(C)C)C(=O)N[C@H](Cc2ccccc2)C(=O)N[C@@H](CCN)C(N)=O)cc1`, the selectivity ratio in series [5] came to 135. Moreover, in the series on Staphylococcus aureus, the MIC was 1 µM (≈ 0.794 µg/mL). Also, the “Ratio EC50” value in series [6] was found to be 2. The outcome in series [1], in series [2], in series [3] and in [4] was Active. Further, the values for the EC50 at 24 h in [8] and in series [9] were 221 µM and 90 µM, respectively. Besides, the hemolysis at 1 h, 100 µM in series [11] stood at 2.1%. In addition, the EC50 at 1 h in series [10] is about 330 µM.
